Consider five compounds from paper PMC10229426, “An optimized bioluminescent substrate for non-invasive imaging in the brain” (Nature Chemical Biology, 2023).

The test system of one series is AkaLuc. Briefly: Bioluminescence imaging of transgenic mice expressing AkaLuc in the brain. It counts as in vivo, mouse. To be noted: 3.0- or 1.3-µmol doses. An excerpt:
(§1) Transgenic reporter mice with LSL-CAG-luciferase (Antares, FLuc or AkaLuc) inserted at the H11 locus (H11P) were generated by φC31-mediated recombination in blastocysts[48] by the Stanford Transgenic, Knockout and Tumor Model Center. For substrate comparisons, 2- to 4-month-old transgenic mice doubly hemizygous for a Camk2a-cre (Jackson Laboratory, 005359), Vgat-IRES-cre (Jackson Laboratory), Vglut2-IRES-cre (Jackson Laboratory, 016963) or Alb-cre (Jackson Laboratory, 003574) driver and a CAG-LSL-Antares, CAG-LSL-AkaLuc or CAG-LSL-FLuc reporter were anesthetized by inhalation of isoflurane for 5 min. An electric shaver was used to remove scalp hair in Camk2a-cre, Vglut2-IRES-cre or Vgat-IRES-cre mice or abdominal hair in Alb-cre mice. Nair depilatory cream (Church and Dwight) was then applied to the shaved area for 1 min, and remaining hair was removed with a piece of sterile gauze. […]
(§2) For mice expressing Antares, indicated amounts of Fz were dissolved in 480 µl of a PEG-300-based formulation consisting of 10% glycerol, 10% ethanol, 10% hydroxypropylcyclodextrin and 35% PEG-300 in water, or indicated amounts of lyophilized Fz analogs with P-407 vehicle were reconstituted in 150–500 µl of DPBS buffer. […] Integrated luminescence was quantified using the Fiji version of the ImageJ program (NIH)[49], with further statistical analysis performed in GraphPad Prism (version 9.0.0).

The conditions of series [1]: probably due to acidity of the solution; cited from earlier work.
In series [2] the target is T1, Antares luciferase (Oplophorus gracilirostris, UniProt Q9GV45, A31E/A60N/A81I/F95D/I117V/K70R/L54V/L99Q/M102K/N193R/P142E/Q151K/Q38R/Q45L/V71I/Y165I).
T1 construct: expressed in transfected cells; host or cells: transgenic mice with CAG-LSL-Antares at the H11 locus, crossed to Cre driver lines (neurons or liver)
T1 sequence (Q9GV45 other isoform, or with tags, fused parts or gaps with the stated changes): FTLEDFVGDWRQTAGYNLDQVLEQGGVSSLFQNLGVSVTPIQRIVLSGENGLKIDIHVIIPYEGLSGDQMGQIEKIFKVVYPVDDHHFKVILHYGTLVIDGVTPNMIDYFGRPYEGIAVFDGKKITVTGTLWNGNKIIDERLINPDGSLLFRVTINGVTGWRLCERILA
Description: Bioluminescence imaging of transgenic mice for substrate comparison (brain, Cre-driven Antares). It counts as in vivo, mouse. An excerpt:
Transgenic reporter mice with LSL-CAG-luciferase (Antares, FLuc or AkaLuc) inserted at the H11 locus (H11P) were generated by φC31-mediated recombination in blastocysts[48] by the Stanford Transgenic, Knockout and Tumor Model Center. For substrate comparisons, 2- to 4-month-old transgenic mice doubly hemizygous for a Camk2a-cre (Jackson Laboratory, 005359), Vgat-IRES-cre (Jackson Laboratory), Vglut2-IRES-cre (Jackson Laboratory, 016963) or Alb-cre (Jackson Laboratory, 003574) driver and a CAG-LSL-Antares, CAG-LSL-AkaLuc or CAG-LSL-FLuc reporter were anesthetized by inhalation of isoflurane for 5 min. An electric shaver was used to remove scalp hair in Camk2a-cre, Vglut2-IRES-cre or Vgat-IRES-cre mice or abdominal hair in Alb-cre mice. Nair depilatory cream (Church and Dwight) was then applied to the shaved area for 1 min, and remaining hair was removed with a piece of sterile gauze. The area was then rinsed with DPBS and cleaned with 70% ethanol with a piece of sterile gauze.
For mice expressing Antares, indicated amounts of Fz were dissolved in 480 µl of a PEG-300-based formulation consisting of 10% glycerol, 10% ethanol, 10% hydroxypropylcyclodextrin and 35% PEG-300 in water, or indicated amounts of lyophilized Fz analogs with P-407 vehicle were reconstituted in 150–500 µl of DPBS buffer. For mice expressing FLuc, indicated amounts of D-luciferin were dissolved in PBS. For mice expressing AkaLuc, 3 μmol (1.0 mg) of AkaLumine-HCl (Sigma-Aldrich) was dissolved in 150 μl of 0.9% NaCl. Substrates were then injected into the peritoneal cavity in the left lower quadrant, with the maximum injectable volume at 480 µl. Immediately after substrate injection, bioluminescent images were acquired in an Ami HT bioluminescence imaging system running Aura software version 3.1 or 4.0 (Spectral Instruments Imaging) for 15–30 min at intervals of 1 min. For comparing substrates at 1.3 µmol, the following imager settings were used: emission filter open, field of view of 25 cm, f-stop of 1.2, binning of 2 × 2 and exposure time of 2 s. For comparison with >1.3-µmol substrates, the following settings were used: emission filter open, field of view of 25 cm, f-stop of 1.2, binning of 1 × 1 and exposure time of 1 s. Pseudocolor images and intensity scale bars were generated with Aura software. Integrated luminescence was quantified using the Fiji version of the ImageJ program (NIH)[49], with further statistical analysis performed in GraphPad Prism (version 9.0.0).

Series [3] addresses T1, Antares luciferase. Briefly: Non-invasive detection of Antares in the liver (Alb-cre driver). The conditions noted are these: 1.3 µmol i.p. It counts as in vivo, mouse.
Text: as §1, §2

Series [4] can be described thus: Solubility in aqueous formulation with poloxamer-407 (P-407). Format: physicochemical. Here is the method: Stock samples of solid formulated Fz analogs were prepared using the following protocol. First, P-407 (Pluronic F127) was placed into a screw-cap glass vial. The polymer was then heated to 75 °C in a water bath until melted. Fz analogs dissolved in ethanol were added to the hot polymer, mixing well with a thin spatula. Additional rinses of Fz analogs in ethanol were added to the hot polymer for quantitative transfer. The solvent was then removed under vacuum. This concentrated sample was diluted with water to make a dispensing mixture of 4–9 mM Fz analogs in water. Next, this aqueous stock was aliquoted into glass vials, frozen and lyophilized overnight to give a yellow cake. For i.p. injection into mice, DPBS (Corning, 21-031-CV) was added to the vial and rocked to create a clear solution.

A short description of series [5]: Toxicity in mice: necropsy and histopathology. Format: in vivo, C57BL/6 mice. The arrangement: key to BMH, brain multifocal hemorrhage score / HN, hepatocellular necrosis score / RTD, renal tubular dilation score / RTDR, renal tubular degeneration and regeneration score: 0: absent; 1: minimal; 2: mild; 3: moderate; 4: severe; key to HMNH, heart myocardial necrosis and hemorrhage score: 0: no lesions; 1: <5% of myocardium affected; 2: 5-10% affected; 3: 10-25% affected; 4: >25% affected; key to LC, Liver capsule score: 0: normal; 1: segmental subcapsular necrosis +/- neutrophilic infiltrate; Total organ score: scale not given here. Here is the method: (§3) Male C57BL/6 mice of 2 months of age were killed by CO2 asphyxiation and cardiac exsanguination. All mice were weighed, and a complete gross examination of the external and internal organs was performed. […] Formalin-fixed tissues were processed routinely, embedded in paraffin, sectioned at 5 μm and stained with hematoxylin and eosin. All slides were blindly evaluated for histologic treatment-related effects (Supplementary Table 1) by a board-certified veterinary pathologist.

Series [6] is described as follows: Toxicity in mice: necropsy and histopathology. The arrangement: key: 0: absent; 1: minimal; 2: mild; 3: moderate; 4: severe. To be noted: 1 day, 4.2 µmol, 20 mg P-407; individual mice. It counts as in vivo, C57BL/6 mice. Here is the method: as §3
The mark [7] stands for this setting: i.p., CAG-LSL-Antares x Vgat-IRES-cre mice.
Where [8] appears, read: 1 day, 4.2 µmol, 20 mg P-407, individual mice.

“And” between values parts separate entries of the source, which are not always exact repeats. Equal values may be shown once. “Also recorded” adds a separate entry of the source.

Consider `CN(C)c1ccc(/C=C/C=C/C2=N[C@@H](C(=O)O)CS2)cc1` [AkaLumine], for which the “duration of brain signal relative to Antares–CFz” value in the series on AkaLuc is recorded as “more sustained signal”. The “toxicity of administered solution” value in series [1] is “noticeable toxicity of the Akalumine solution to the skin and heart”.

On to `Nc1cccc(-c2cn3c(=O)c(Cc4ccco4)nc-3c(Cc3ccccc3F)[nH]2)c1F` [FFz, fluorofurimazine, reference compound], for which the brain signal distribution result on Antares luciferase [2] (Antares driven by Camk2a-cre) is “signal predominantly from the hindbrain”; at Antares luciferase [2] (setting [7]), “low brightness from the forebrain, higher signal from the hindbrain, and highest signal from regions in the head outside the brain”. Moreover, at Antares luciferase [3], the “liver signal, 6 versus FFz” value was “brighter in the liver”.

With `O=c1c(Cc2ccco2)nc2c(Cc3ccccc3)[nH]c(-c3cccc(O)c3)cn1-2` [HFz, hydrofurimazine, reference compound], at Antares luciferase [2] (setting [7]), the “brain signal brightness relative to Fz” value is “more than tenfold dimmer” and the brain signal distribution result is recorded as “signal from the brain similar to Fz”.

For `Cc1ccc(Cc2nc3c(Cc4ccccc4)[nH]c(-c4cccc(F)c4F)cn-3c2=O)o1` [compound 10], in series [4], the “relative solubility in aqueous formulation with P-407” value was “reduced solubility”. In addition, the “solubilization of 4.2 µmol in P-407 formulation” value in series [4] (4.2 µmol) is “incomplete solubilization”.

In the case of `Cc1ccc(Cc2nc3c(Cc4ccccc4F)[nH]c(-c4cccc(F)c4F)cn-3c2=O)o1` [compound 13], the “toxicity after a single i.p. injection” value in series [5] (4.2 µmol with 20 mg P-407, one injection) is “severe kidney pathology and weight loss; also recorded: more toxic than 6”. Besides, in series [5] (setting [8]), the “BMH, brain multifocal hemorrhage score” value is given as 0; the “HMNH, heart myocardial necrosis and hemorrhage score” value was found to be 0; the “HN, hepatocellular necrosis score” value is 0; the “LC, Liver capsule score” value was 0. In series [5] (setting [8]), the “RTD, renal tubular dilation score” value was 2 (5%–25% of tubules affected) (2×) and 3 (25%–50% of tubules affected); the “RTDR, renal tubular degeneration and regeneration score” value was 3 (25%–50% of tubules affected) (2×) and 2 (5%–25% of tubules affected); the “SRPHMV, splenic red pulp histiocytosis with microvesicular vacuolation score” value was determined as 0; the Total organ score is 5 and 4 and 6. The “∆ weight” value in series [5] (setting [8]) is “–7.9%; also recorded: –7.2%; also recorded: –6.7%”. On Antares luciferase [2] (1.3 µmol i.p. with 10 mg P-407), the “brain brightness relative to 6” value was “brighter”. Further, the “brain brightness relative to 6 (factor)” value at Antares luciferase [2] (1.3 µmol i.p. with 10 mg P-407, Vglut2-IRES-cre or CaMKIIα-cre) is 1.5–2.0. Moreover, in series [6], the “HPMC, heart perivascular myxomatous change score” value is 0; the “HT, heart telangiectasia score” value was determined as 0; the “KCHMV, Kupffer cell hyperplasia and microvesicular vacuolation score” value is on record as 0.
